Measured values from patent US20220087987A1, “A METHOD FOR TREATING SWI/SNF COMPLEX-DEFICIENT CANCERS COMPRISING GLUTATHIONE (GSH) METABOLIC PATHWAY INHIBITOR” (National Cancer Center, priority 2018, published 2022).

Test system: ARID1A-deficient TOV21G OCCC xenografts
Experiment: Mouse xenograft model, TOV21G
Type: in vivo, mice
Details: APR-246 50 mg/kg
Protocol: All mouse experiments were approved by the National Cancer Center (NCC) animal Ethical Committee. Cells were counted and re-suspended in a 1:1 mixture of 100 μl culture medium and 100 μl Matrigel (BD Biosciences) on ice. […] In the subcutaneous model, once the tumors were palpable (about 3-14 days after implantation), mice were randomly divided into two groups. […] In the doxycycline (Dox) treatment study, TOV21G-shNT cells and TOV21G-shGCLC cells were injected into the flanks of 6-week-old female BALB/c-nu/nu mice. […] In other experiments, TOV21G-shNT cells and TOV21G-shGCLC cells were treated with Dox (0.5 μg/ml) for 4 days and then injected into the flank of 6-week-old female BALB/c-nu/nu mice. […] Tumor growth was measured every several days using calipers. The volume of implanted tumors was calculated using the formula V=L×W2/2, where V is volume (mm^3), L is the largest diameter (mm), and W is the smallest diameter (mm). At the end of the experiment, mice were sacrificed in accordance with standard protocols.
GSH was detected using the GSH-Glo Assay (Promega). Tumor samples derived from xenografts were weighed and washed with PBS. The tumor samples were mixed with 50 μl of PBS and homogenized using a Mini Cordless Grinder (Funakoshi). PBS (950 μl) was added to homogenized tumor samples and centrifuged at 4° C. for 10 min at 15,000 rpm. Tumor extract and 2×GSH-Glo Reagent (25 μl of each) were mixed in white 96-well plates (Greiner) and incubated for 30 min at room temperature. Luciferin Detection Reagent (50 μl) was added and the samples were incubated for 15 min at room temperature. Luminescence was measured using an Envision Multi-label plate reader (PerkinElmer). GSH signal intensities per 1 mg of tumor sample were calculated.
Formalin-fixed, paraffin-embedded ovarian cancer clinical specimens and TOV21G xenografts were deparaffinized and representative whole 4-μm-thick sections were analyzed by IHC. […] The samples were removed from the freezer and equilibrated at −20° C. for approximately 15 minutes before sectioning. Tissue sections (6 μm thick) were placed on positively charged slides, dried, and fixed for 15 minutes at room temperature in 3% formaldehyde, followed by 5 minutes in methanol at −20° C. After fixation, representative sections were analyzed by IHC. […] All IHC staining was performed using a Dako autostainer Link48 (Dako).
First, membrane staining intensity (0, 1+, 2+, or 3+) was determined for each cell in a fixed field. The H-score was assigned using the following formula: [1×(% cells 1+)+2×(% cells 2+)+3×(% cells 3+)]. The final score, ranging from 0 to 300, gives more relative weight to higher-intensity membrane staining in a given tumor sample. The percentage of NOXA-, cleaved caspase-3-, cleaved PARP- and Ki67-positive cells (of the total number of cells) in each slide were counted.

COCC1(CO)C(=O)C2CCN1CC2 (stereo not drawn) [APR-246]
GSH level in xenograft cells: decreased
apoptotic markers NOXA, cleaved PARP, cleaved caspase-3 and proliferation marker Ki67 (IHC): markedly increased expression of the apoptotic markers NOXA, cleaved PARP, and cleaved caspase-3, and decreased expression of the cell proliferation marker Ki67
oxidative stress marker 8-OHdG (IHC, H-score): increased the level of the oxidative stress marker 8-hydroxy-2′-deoxyguanosine (8-OHdG) markedly
tumor weight (BSO 750 mg/kg): reduced
body weight of mice (BSO 750 mg/kg once a day): did not cause significant loss of body weight
growth of xenografts (tumor volume) (intraperitoneally once daily 12-14 days, BSO 750 mg/kg): significantly suppressed the growth
